Test results published in publication PMC2643072 (Journal of medicinal chemistry, 2008).

Target: T1, porcine erythrocyte μ-calpain (Sus scrofa, UniProt P35750)
T1 sequence (P35750 1-714): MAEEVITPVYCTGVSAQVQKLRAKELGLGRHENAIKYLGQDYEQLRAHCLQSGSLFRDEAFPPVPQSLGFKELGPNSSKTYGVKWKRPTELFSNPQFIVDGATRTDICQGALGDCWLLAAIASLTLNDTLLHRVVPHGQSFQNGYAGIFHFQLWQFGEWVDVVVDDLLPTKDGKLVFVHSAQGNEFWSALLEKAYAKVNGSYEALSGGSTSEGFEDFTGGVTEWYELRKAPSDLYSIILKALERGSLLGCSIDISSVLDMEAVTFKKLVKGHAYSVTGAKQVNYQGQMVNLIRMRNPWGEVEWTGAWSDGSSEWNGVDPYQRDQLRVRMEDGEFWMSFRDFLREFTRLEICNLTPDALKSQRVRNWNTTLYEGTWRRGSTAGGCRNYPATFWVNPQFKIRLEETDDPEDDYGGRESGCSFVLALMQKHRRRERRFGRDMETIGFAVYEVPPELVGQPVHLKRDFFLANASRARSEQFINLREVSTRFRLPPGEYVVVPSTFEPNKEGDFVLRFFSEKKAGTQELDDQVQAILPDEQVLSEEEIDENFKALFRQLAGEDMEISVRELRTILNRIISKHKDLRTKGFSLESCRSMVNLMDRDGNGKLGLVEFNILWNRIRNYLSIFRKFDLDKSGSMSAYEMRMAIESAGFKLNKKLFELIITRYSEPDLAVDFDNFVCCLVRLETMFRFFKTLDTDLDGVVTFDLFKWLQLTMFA
T1 sequence (P04574 1-266 partner): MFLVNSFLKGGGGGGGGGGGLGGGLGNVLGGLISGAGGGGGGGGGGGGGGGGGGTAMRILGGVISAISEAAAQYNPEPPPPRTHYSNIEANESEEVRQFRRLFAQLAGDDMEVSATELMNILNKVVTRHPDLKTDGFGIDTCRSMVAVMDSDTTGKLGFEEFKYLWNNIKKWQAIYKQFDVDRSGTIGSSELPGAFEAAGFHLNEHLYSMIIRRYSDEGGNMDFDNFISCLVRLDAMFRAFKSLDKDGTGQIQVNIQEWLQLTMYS
Assay: μ-Calpain inhibition assay
Format: biochemical

SMILES | μ-calpain inhibitory potency relative to 2c (diphenylpropionyl (2d) vs diphenylacetyl (2c) N-terminal cap) | fold more potent than 2a and 2b (μ-calpain inhibition) (planar fluorene cap vs cyclohexyl (2a) and adamantyl (2b) caps)
CC(C)C[C@H](NC(=O)CC(c1ccccc1)c1ccccc1)C(=O)NC(Cc1ccccc1)C(=O)C(=O)O (stereo partly drawn) [Compound 2d, N-(3,3-Diphenylpropionyl)-L-leucyl-2-oxo-3(R,S)-amino-4-phenylbutanoic acid] | about twice as potent | –
CC(C)C[C@H](NC(=O)CC1c2ccccc2-c2ccccc21)C(=O)NC(Cc1ccccc1)C(=O)C(=O)O (stereo partly drawn) [Compound 2e, N-(9-Fluoreneacetyl)-L-leucyl-2-oxo-3(R,S)-amino-4-phenylbutanoic acid] | – | over 5 fold
